Earlier results, collected in patent US4981867A, “Treatment of tremor using compounds that depress calcium currents in thalamic and other central nervous system neurons” (The Board of Trustees of the Leland Stanford Junior …, priority 1989, dated 1991).

Tested on: essential-familial tremor
Conditions: stated as known in background

Structure (SMILES)	suppression of essential-familial tremor
CC(C)NCC(O)COc1cccc2ccccc12 (centres unmarked) [propranolol]	can be suppressed
CCC1(c2ccccc2)C(=O)NCNC1=O [primidone]	can be suppressed
